Values of other authors in patent publication US20090148502A1, “COMPOSITIONS AND METHODS FOR TREATING LACERATIONS, ABRASIONS, AVULSIONS, BURNS, ULCERS, AND CASES OF EXCESSIVE BLEEDING” (Hemo Nanoscience, LLC, priority 2006, published 2009).

Legend:
[1] = in vivo
wound = conditions: 0.04% (wt/wt), topically applied

Molecule: CCCCN1CCCCC1C(=O)Nc1c(C)cccc1C (centres unmarked) [bupivacaine]
- duration of action [1]: 6 to 8 h

Molecule: Human EGF: human epidermal growth factor
- effect on healing time (wound): successful in reducing the healing time
